Measured values reported in PubChem BioAssay (NCI).
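Here, GI50 denotes the concentration required for 50% inhibition of growth. At the TGI there is no net growth.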

Key:
Experiment in all cases: NCI anticancer screen, dose series, 384-well format
MDA-MB-231 breast = system: MDA-MB-231 breast
RXF 393 renal = system: RXF 393 renal
MDA-MB-468 breast = system: MDA-MB-468 breast
LOX IMVI melanoma = system: LOX IMVI melanoma
OVCAR-5 ovarian = system: OVCAR-5 ovarian
SK-MEL-2 melanoma = system: SK-MEL-2 melanoma
OVCAR-4 ovarian = system: OVCAR-4 ovarian
HS 578T breast = system: HS 578T breast
COLO 205 colon = system: COLO 205 colon
SF-539 CNS = system: SF-539 CNS
K-562 leukemia = system: K-562 leukemia
RPMI-8226 leukemia = system: RPMI-8226 leukemia
HT29 colon = system: HT29 colon
SF-268 CNS = system: SF-268 CNS
U251 glioblastoma = system: U251 glioblastoma
NCI-H522 lung = system: NCI-H522 lung
A498 renal = system: A498 renal
OVCAR-8 ovarian = system: OVCAR-8 ovarian
IGROV1 ovarian = system: IGROV1 ovarian
SW-620 colon = system: SW-620 colon
HCT-15 colon = system: HCT-15 colon
M14 melanoma = system: M14 melanoma
MALME-3M melanoma = system: MALME-3M melanoma
ACHN renal = system: ACHN renal
NCI-H322M lung = system: NCI-H322M lung
HCT-116 colon = system: HCT-116 colon
A549 NSCLC = system: A549 NSCLC
OVCAR-3 ovarian = system: OVCAR-3 ovarian
SK-MEL-28 melanoma = system: SK-MEL-28 melanoma
SN12C renal = system: SN12C renal
CCRF-CEM leukemia = system: CCRF-CEM leukemia
T-47D breast = system: T-47D breast
HL-60(TB) leukemia = system: HL-60(TB) leukemia
UO-31 renal = system: UO-31 renal
UACC-257 melanoma = system: UACC-257 melanoma
CAKI-1 renal = system: CAKI-1 renal
NCI-H23 lung = system: NCI-H23 lung
MDA-MB-435 melanoma = system: MDA-MB-435 melanoma
SK-MEL-5 melanoma = system: SK-MEL-5 melanoma
NCI-H460 NSCLC = system: NCI-H460 NSCLC
HOP-62 NSCLC = system: HOP-62 NSCLC
NCI-H226 lung = system: NCI-H226 lung
MOLT-4 leukemia = system: MOLT-4 leukemia
SK-OV-3 ovarian = system: SK-OV-3 ovarian
786-0 renal = system: 786-0 renal
HCC-2998 colon = system: HCC-2998 colon
SF-295 CNS = system: SF-295 CNS
BT-549 breast = system: BT-549 breast
UACC-62 melanoma = system: UACC-62 melanoma
KM12 colon = system: KM12 colon
NCI/ADR-RES ovarian = system: NCI/ADR-RES ovarian
PC-3 prostate = system: PC-3 prostate
EKVX NSCLC = system: EKVX NSCLC

## CS(=O)(=O)Nc1cc(-c2ccc3ncnc(Nc4ccc(F)c(Cl)c4)c3c2)cnc1Cl
MDA-MB-231 breast
  GI50: 2330 nM
  TGI: > 100 µM
RXF 393 renal
  GI50: 450 nM
  TGI: 1960 nM
MDA-MB-468 breast
  GI50: 253 nM
  TGI: 769 nM
LOX IMVI melanoma
  GI50: 1220 nM
  TGI: 2560 nM
OVCAR-5 ovarian
  GI50: 939 nM
  TGI: 4.55 µM
SK-MEL-2 melanoma
  GI50: 1200 nM
  TGI: 2550 nM
OVCAR-4 ovarian
  GI50: 1220 nM
  TGI: 4.45 µM
HS 578T breast
  GI50: 501 nM
  TGI: 2310 nM
COLO 205 colon
  GI50: 1210 nM
  TGI: 2990 nM
SF-539 CNS
  GI50: 1480 nM
  TGI: 5.05 µM
K-562 leukemia
  GI50: 1520 nM
  TGI: 10.6 µM
RPMI-8226 leukemia
  GI50: 370 nM
  TGI: 1580 nM
HT29 colon
  GI50: 1110 nM
  TGI: 2520 nM
SF-268 CNS
  GI50: 1420 nM
  TGI: 2900 nM
U251 glioblastoma
  GI50: 691 nM
  TGI: 2110 nM
NCI-H522 lung
  GI50: 547 nM
  TGI: 2360 nM
A498 renal
  GI50: 905 nM
  TGI: 4.06 µM
OVCAR-8 ovarian
  GI50: 1910 nM
  TGI: 10.1 µM
IGROV1 ovarian
  GI50: 154 nM
  TGI: 471 nM
SW-620 colon
  GI50: 1650 nM
  TGI: 3.84 µM
HCT-15 colon
  GI50: 885 nM
  TGI: 3.14 µM
M14 melanoma
  GI50: 1140 nM
  TGI: 4 µM
MALME-3M melanoma
  GI50: 293 nM
  TGI: 1640 nM
ACHN renal
  GI50: 1800 nM
  TGI: > 100 µM
NCI-H322M lung
  GI50: 1190 nM
  TGI: 3.36 µM
HCT-116 colon
  GI50: 1140 nM
  TGI: 2640 nM
A549 NSCLC
  GI50: 1370 nM
  TGI: 2840 nM
OVCAR-3 ovarian
  GI50: 457 nM
  TGI: 1850 nM
SK-MEL-28 melanoma
  GI50: 728 nM
  TGI: 8.86 µM
SN12C renal
  GI50: 524 nM
  TGI: 5.25 µM
CCRF-CEM leukemia
  GI50: 166 nM
  TGI: 466 nM
T-47D breast
  GI50: 85.5 nM
  TGI: 548 nM
HL-60(TB) leukemia
  GI50: 158 nM
  TGI: 1060 nM
UO-31 renal
  GI50: 639 nM
  TGI: 2420 nM
UACC-257 melanoma
  GI50: 1360 nM
  TGI: 5.54 µM
CAKI-1 renal
  GI50: 492 nM
  TGI: 2020 nM
NCI-H23 lung
  GI50: 1150 nM
  TGI: 4.03 µM
MDA-MB-435 melanoma
  GI50: 1380 nM
  TGI: 7.87 µM
SK-MEL-5 melanoma
  GI50: 1030 nM
  TGI: 2220 nM
NCI-H460 NSCLC
  GI50: 1010 nM
  TGI: 3.84 µM
HOP-62 NSCLC
  GI50: 1430 nM
  TGI: 5.19 µM
NCI-H226 lung
  GI50: 1440 nM
  TGI: 13.4 µM
MOLT-4 leukemia
  GI50: 160 nM
  TGI: 348 nM
SK-OV-3 ovarian
  GI50: 635 nM
  TGI: 3.32 µM
786-0 renal
  GI50: 1350 nM
  TGI: 4.82 µM
HCC-2998 colon
  GI50: 1180 nM
  TGI: 2620 nM
SF-295 CNS
  GI50: 1290 nM
  TGI: 2930 nM
BT-549 breast
  GI50: 573 nM
  TGI: 2340 nM
UACC-62 melanoma
  GI50: 1040 nM
  TGI: 2550 nM
KM12 colon
  GI50: 2860 nM
  TGI: 19.9 µM
NCI/ADR-RES ovarian
  GI50: 3.6 µM
  TGI: 40.3 µM
PC-3 prostate
  GI50: 872 nM
  TGI: 2280 nM
EKVX NSCLC
  GI50: 498 nM
  TGI: 2060 nM
